In patent publication US10640506B2, “Cyclobutyl substituted pyrrolopyridine and pyrrolopyrimidines derivatives as JAK inhibitors” (Incyte Corporation, priority 2010, dated 2020):
Counter-ions that a name gives are not always drawn. Like-named read-outs stand apart in the source and are kept apart here.

Legend:
[1] = molecular target: human JAK1 (a.a. 837-1142) (Homo sapiens, UniProt P23458); assay: In vitro JAK kinase assay (HTRF, phosphorylation of biotinylated peptide), JAK1; type: biochemical; settings: 1 mM ATP
Chain of human JAK1 (a.a. 837-1142) (P23458 849-1154): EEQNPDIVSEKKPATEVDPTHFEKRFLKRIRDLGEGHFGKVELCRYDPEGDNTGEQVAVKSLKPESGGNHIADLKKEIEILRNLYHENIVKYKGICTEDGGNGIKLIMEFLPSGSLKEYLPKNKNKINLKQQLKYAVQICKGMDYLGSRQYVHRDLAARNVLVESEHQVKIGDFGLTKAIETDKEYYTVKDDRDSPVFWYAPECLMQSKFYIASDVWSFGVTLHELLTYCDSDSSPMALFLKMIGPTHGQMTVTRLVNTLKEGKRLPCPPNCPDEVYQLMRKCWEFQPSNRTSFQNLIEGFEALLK
How it was run: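 His-tagged human JAK1 catalytic domain (a.a. 837-1142), baculovirus/insect-cell expressed, phosphorylates a biotinylated peptide for 1 h at room temperature. Reaction stopped with EDTA; product detected by HTRF (SA-APC, Eu-Py20, 40 min binding). IC50 reported as ranges.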

[2] = molecular target: T1, JAK2 (a.a. 828-1132) (Homo sapiens, UniProt O60674); assay: In vitro JAK kinase assay (HTRF, phosphorylation of biotinylated peptide), JAK2; type: biochemical; settings: 1 mM ATP
T1 construct: JAK2 (a.a. 828-1132); His tag (N)
T1 sequence (O60674 828-1132): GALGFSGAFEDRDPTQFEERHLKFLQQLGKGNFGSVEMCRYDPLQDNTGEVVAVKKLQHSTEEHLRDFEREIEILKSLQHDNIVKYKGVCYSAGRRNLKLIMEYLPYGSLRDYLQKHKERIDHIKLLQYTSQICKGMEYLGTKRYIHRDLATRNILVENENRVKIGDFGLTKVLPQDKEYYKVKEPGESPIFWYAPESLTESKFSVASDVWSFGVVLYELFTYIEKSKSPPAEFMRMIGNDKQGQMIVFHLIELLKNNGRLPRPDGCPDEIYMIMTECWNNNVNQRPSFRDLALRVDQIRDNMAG
How it was run: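 His-tagged catalytic domains of human JAK1 (a.a. 837-1142) and JAK2 (a.a. 828-1132), baculovirus-expressed, phosphorylate a biotinylated peptide for 1 hour at room temperature. Stopped with EDTA; detected by HTRF using SA-APC and Eu-Py20 antibody after 40 min binding; values binned as ranges.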

Structure (SMILES)	IC50 ([1]; Table B, read-out: JAK1 IC50)	IC50 ([2]; Table B, read-out: JAK2 IC50)	IC50 ([1]; Table F)	IC50 ([2]; Table F)	also measured
N#CC[C@]1(n2cc(-c3ncnc4[nH]ccc34)cn2)C[C@@H](N2CCN(C(=O)c3ccc(Cl)cc3)CC2)C1 [Example 28, {cis-3-{4-[4-chlorobenzoyl]piperazin-1-yl}-1-[4-(7H-pyrrolo[2,3-d]pyrimidin-4-yl)-1H-pyrazol-1-yl]cyclobutyl}acetonitrile]					IC50 ([1]; Table A, read-out: JAK1 IC50): < 10 nM; IC50 ([2]; Table A, read-out: JAK2 IC50): 10 to 25 nM
N#CC[C@]1(n2cc(-c3ncnc4[nH]ccc34)cn2)C[C@@H](N2CCN(C(=O)c3ccc(C(F)(F)F)cc3F)CC2)C1 [Example 29, {cis-3-{4-[2-fluoro-4-(trifluoromethyl)benzoyl]piperazin-1-yl}-1-[4-(7H-pyrrolo[2,3-d]pyrimidin-4-yl)-1H-pyrazol-1-yl]cyclobutyl}acetonitrile 2.3×(trifluoroacetate) Salt]					IC50 ([1]; Table A, read-out: JAK1 IC50): 10 to 25 nM; IC50 ([2]; Table A, read-out: JAK2 IC50): 25 to 100 nM
[2H][C@]1(N2CCN(C(=O)c3ccnc(C(F)(F)F)n3)CC2)C[C@@](CC#N)(n2cc(-c3ncnc4[nH]ccc34)cn2)C1 [Example 30, [cis-1-[4-(7H-pyrrolo[2,3-d]pyrimidin-4-yl)-1H-pyrazol-1-yl]-3-(4-{[2-(trifluoromethyl)pyrimidin-4-yl]carbonyl}piperazin-1-yl)cyclobutyl]acetonitrile-d1]					IC50 ([1]; Table C, read-out: JAK1 IC50): < 10 nM; IC50 ([2]; Table C, read-out: JAK2 IC50): > 100 nM
[2H][C@]1(N2CCN(C(=O)c3ccnc(C(F)(F)F)n3)CC2)C[C@](CC#N)(n2cc(-c3ncnc4[nH]ccc34)cn2)C1 [Example 31, [trans-1-[4-(7H-pyrrolo[2,3-d]pyrimidin-4-yl)-1H-pyrazol-1-yl]-3-(4-{[2-(trifluoromethyl)pyrimidin-4-yl]carbonyl}piperazin-1-yl)cyclobutyl]acetonitrile-d1]					IC50 ([1]; Table D, read-out: JAK1 IC50): < 10 nM; IC50 ([2]; Table D, read-out: JAK2 IC50): 25 to 100 nM
CN(C)C(=O)N1CCN([C@H]2C[C@](CC#N)(n3cc(-c4ncnc5[nH]ccc45)cn3)C2)CC1 [Example 32, 4-{trans-3-(cyanomethyl)-3-[4-(7H-pyrrolo[2,3-d]pyrimidin-4-yl)-1H-pyrazol-1-yl]cyclobutyl}-N,N-dimethylpiperazine-1-carboxamide]	< 10 nM	> 100 nM			
CN(C)Cc1cc(F)cc(C(=O)N2CCN([C@H]3C[C@](CC#N)(n4cc(-c5ncnc6[nH]ccc56)cn4)C3)CC2)c1 [Example 33, {trans-3-(4-{3-[(dimethylamino)methyl]-5-fluorobenzoyl}piperazin-1-yl)-1-[4-(7H-pyrrolo[2,3-d]pyrimidin-4-yl)-1H-pyrazol-1-yl]cyclobutyl}acetonitrile]	< 10 nM	< 10 nM			
CN(C)Cc1cc(F)cc(CN2CCN([C@H]3C[C@](CC#N)(n4cc(-c5ncnc6[nH]ccc56)cn4)C3)CC2)c1 [Example 34, {trans-3-(4-{3-[(dimethylamino)methyl]-5-fluorobenzyl}piperazin-1-yl)-1-[4-(7H-pyrrolo[2,3-d]pyrimidin-4-yl)-1H-pyrazol-1-yl]cyclobutyl}acetonitrile]	< 10 nM	10 to 25 nM			
N#CC[C@]1(n2cc(-c3ncnc4[nH]ccc34)cn2)C[C@H](N2CCN(S(=O)(=O)C3CC3)CC2)C1 [Example 36, {trans-3-[4-(cyclopropylsulfonyl)piperazin-1-yl]-1-[4-(7H-pyrrolo[2,3-d]pyrimidin-4-yl)-1H-pyrazol-1-yl]cyclobutyl}acetonitrile]	< 10 nM	< 10 nM			
CN(C)S(=O)(=O)N1CCN([C@H]2C[C@](CC#N)(n3cc(-c4ncnc5[nH]ccc45)cn3)C2)CC1 [Example 37, 4-{trans-3-(cyanomethyl)-3-[4-(7H-pyrrolo[2,3-d]pyrimidin-4-yl)-1H-pyrazol-1-yl]cyclobutyl}-N,N-dimethylpiperazine-1-sulfonamide]	< 10 nM	< 10 nM			
CCN(C)C(=O)N1CCN([C@H]2C[C@](CC#N)(n3cc(-c4ncnc5[nH]ccc45)cn3)C2)CC1 [Example 38, 4-{trans-3-(cyanomethyl)-3-[4-(7H-pyrrolo[2,3-d]pyrimidin-4-yl)-1H-pyrazol-1-yl]cyclobutyl}-N-ethyl-N-methylpiperazine-1-carboxamide]	< 10 nM	25 to 100 nM			
CN(C)Cc1cc(C(=O)N2CCN([C@H]3C[C@](CC#N)(n4cc(-c5ncnc6[nH]ccc56)cn4)C3)CC2)cc(C(F)(F)F)c1 [Example 39, {trans-3-{4-[3-[(dimethylamino)methyl]-5-(trifluoromethyl)benzoyl]piperazin-1-yl}-1-[4-(7H-pyrrolo[2,3-d]pyrimidin-4-yl)-1H-pyrazol-1-yl]cyclobutyl}acetonitrile]	< 10 nM	25 to 100 nM			
CN(C)Cc1cc(C#N)cc(C(=O)N2CCN([C@H]3C[C@@](CC#N)(n4cc(-c5ncnc6[nH]ccc56)cn4)C3)CC2)c1 [Example 42, 3-[(4-{cis-3-(cyanomethyl)-3-[4-(7H-pyrrolo[2,3-d]pyrimidin-4-yl)-1H-pyrazol-1-yl]cyclobutyl}piperazin-1-yl)carbonyl]-5-[(dimethylamino)methyl]benzonitrile]			< 10 nM	> 100 nM	
CN(C)Cc1cc(C#N)cc(CN2CCN([C@H]3C[C@@](CC#N)(n4cc(-c5ncnc6[nH]ccc56)cn4)C3)CC2)c1 [Example 44, 3-[(4-{cis-3-(cyanomethyl)-3-[4-(7H-pyrrolo[2,3-d]pyrimidin-4-yl)-1H-pyrazol-1-yl]cyclobutyl}piperazin-1-yl)methyl]-5-[(dimethylamino)methyl]benzonitrile]			10 to 25 nM	> 100 nM	
CN(C)Cc1cc(CN2CCN([C@H]3C[C@](CC#N)(n4cc(-c5ncnc6[nH]ccc56)cn4)C3)CC2)cc(C(F)(F)F)c1 [Example 45, {trans-3-{4-[3-[(dimethylamino)methyl]-5-(trifluoromethyl)benzyl]piperazin-1-yl}-1-[4-(7H-pyrrolo[2,3-d]pyrimidin-4-yl)-1H-pyrazol-1-yl]cyclobutyl}acetonitrile]			> 100 nM	> 100 nM	
CN(C)Cc1cc(CN2CCN([C@H]3C[C@@](CC#N)(n4cc(-c5ncnc6[nH]ccc56)cn4)C3)CC2)cc(C(F)(F)F)c1 [Example 46, {cis-3-{4-[3-[(dimethylamino)methyl]-5-(trifluoromethyl)benzyl]piperazin-1-yl}-1-[4-(7H-pyrrolo[2,3-d]pyrimidin-4-yl)-1H-pyrazol-1-yl]cyclobutyl}acetonitrile]			25 to 100 nM	> 100 nM	
CCNCc1cc(C(=O)N2CCN([C@H]3C[C@](CC#N)(n4cc(-c5ncnc6[nH]ccc56)cn4)C3)CC2)nc(C(F)(F)F)n1 [Example 47, {trans-3-(4-{[6-[(Ethylamino)methyl]-2-(trifluoromethyl)pyrimidin-4-yl]carbonyl}piperazin-1-yl)-1-[4-(7H-pyrrolo[2,3-d]pyrimidin-4-yl)-1H-pyrazol-1-yl]cyclobutyl}acetonitrile]			< 10 nM	25 to 100 nM	
N#CC[C@]1(n2cc(-c3ncnc4[nH]ccc34)cn2)C[C@H](N2CCN(C(=O)c3cc(C(=O)O)nc(C(F)(F)F)n3)CC2)C1 [Example 48, 6-[(4-{trans-3-(cyanomethyl)-3-[4-(7H-pyrrolo[2,3-d]pyrimidin-4-yl)-1H-pyrazol-1-yl]cyclobutyl}piperazin-1-yl)carbonyl]-2-(trifluoromethyl)pyrimidine-4-carboxylic acid]			10 to 25 nM	> 100 nM	
N#CC[C@]1(n2cc(-c3ncnc4[nH]ccc34)cn2)C[C@H](N2CCN(C(=O)c3cc(CN4CCC4)nc(C(F)(F)F)n3)CC2)C1 [Example 49, {trans-3-(4-{[6-(azetidin-1-ylmethyl)-2-(trifluoromethyl)pyrimidin-4-yl]carbonyl}piperazin-1-yl)-1-[4-(7H-pyrrolo[2,3-d]pyrimidin-4-yl)-1H-pyrazol-1-yl]cyclobutyl}acetonitrile]			< 10 nM	25 to 100 nM	
CNCc1cc(C(=O)N2CCN([C@H]3C[C@](CC#N)(n4cc(-c5ncnc6[nH]ccc56)cn4)C3)CC2)nc(C(F)(F)F)n1 [Example 50, {trans-3-(4-{[6-[(methylamino)methyl]-2-(trifluoromethyl)pyrimidin-4-yl]carbonyl}piperazin-1-yl)-1-[4-(7H-pyrrolo[2,3-d]pyrimidin-4-yl)-1H-pyrazol-1-yl]cyclobutyl}acetonitrile]			< 10 nM	25 to 100 nM	
N#CC[C@]1(n2cc(-c3ncnc4[nH]ccc34)cn2)C[C@H](N2CCN(C(=O)c3cc(CO)nc(C(F)(F)F)n3)CC2)C1 [Example 51, {trans-3-(4-{[6-(hydroxymethyl)-2-(trifluoromethyl)pyrimidin-4-yl]carbonyl}piperazin-1-yl)-1-[4-(7H-pyrrolo[2,3-d]pyrimidin-4-yl)-1H-pyrazol-1-yl]cyclobutyl}acetonitrile]			< 10 nM	25 to 100 nM	
CN(C)Cc1cc(C(=O)N2CCN([C@H]3C[C@](CC#N)(n4cc(-c5ncnc6[nH]ccc56)cn4)C3)CC2)nc(C(F)(F)F)n1 [Example 52, {trans-3-(4-{[6-[(dimethylamino)methyl]-2-(trifluoromethyl)pyrimidin-4-yl]carbonyl}piperazin-1-yl)-1-[4-(7H-pyrrolo[2,3-d]pyrimidin-4-yl)-1H-pyrazol-1-yl]cyclobutyl}acetonitrile]			< 10 nM	25 to 100 nM	
